Reference: patent US5565440A, “Methane diphosphonic acid derivative, its production process and its pharmaceutical applications” (Toray Industries, Inc., priority 1992, dated 1996)

Test system: adjuvant arthritis
Experiment: Adjuvant Arthritis Test
Assay type: in vivo, Lewis female rats
Conditions: 8th to 21st day; for Swelling inhibition rate with respect to control group, 14th day, Left / Swelling inhibition rate with respect to control group, 21st day, Left: left hind limb (adjuvant-injected); for Swelling inhibition rate with respect to control group, 14th day, Right / Swelling inhibition rate with respect to control group, 21st day, Right: right hind limb; for Bone destruction inhibition rate with respect to control group: soft X-ray score, 22nd day

| Structure (SMILES) | Swelling inhibition rate with respect to control group, 14th day, Left (3 mg/kg s.c. daily) [%] | Swelling inhibition rate with respect to control group, 21st day, Left (3 mg/kg s.c. daily) [%] | Swelling inhibition rate with respect to control group, 14th day, Right (3 mg/kg s.c. daily) [%] | Swelling inhibition rate with respect to control group, 21st day, Right (3 mg/kg s.c. daily) [%] | Bone destruction inhibition rate with respect to control group (3 mg/kg s.c. daily) [%] | Swelling inhibition rate with respect to control group, 14th day, Left (20 mg/kg s.c. daily) [%] | Swelling inhibition rate with respect to control group, 21st day, Left (20 mg/kg s.c. daily) [%] | Swelling inhibition rate with respect to control group, 14th day, Right (20 mg/kg s.c. daily) [%] | Swelling inhibition rate with respect to control group, 21st day, Right (20 mg/kg s.c. daily) [%] | Bone destruction inhibition rate with respect to control group (20 mg/kg s.c. daily) [%] |
| --- | --- | --- | --- | --- | --- | --- | --- | --- | --- | --- |
| O=P(O)(O)C(O)(CC1CCSc2ccc(Cl)cc21)P(=O)(O)O (centres unmarked) [Example 4, Monosodium 2-[4-(6-chlorothiochromanyl)]-1-hydroxyethane-1,1-diphosphonate] | 55.5 | 93.0 | 32.4 | 37.7 | 52.7 | – | – | – | – | – |
| O=P(O)(O)C(O)(CC1CCSc2ccccc21)P(=O)(O)O (centres unmarked) [Example 6, Monosodium 2-(4-thiochromanyl)-1-hydroxyethane-1,1-diphosphonate] | 26.1 | 62.0 | 27.2 | 35.9 | 38.5 | – | – | – | – | – |
| CSc1cccc2c1SCCC2CC(O)(P(=O)(O)O)P(=O)(O)O (centres unmarked) [Example 14, Disodium 2-[4-(8-methylthiothiochromanyl)]-1-hydroxyethane-1,1-diphosphonate] | 53.9 | 80.0 | 2.9 | 31.0 | 46.9 | – | – | – | – | – |
| COc1cccc2c1SCCC2CC(O)(P(=O)(O)O)P(=O)(O)O (centres unmarked) [Example 12] | 35.4 | 60.1 | 0.2 | 24.2 | 26.2 | – | – | – | – | – |
| O=P(O)(O)C(O)(CC1CCSc2c(Cl)cccc21)P(=O)(O)O (centres unmarked) [Example 8] | 52.6 | 84.1 | 0.1 | 37.5 | 52.3 | – | – | – | – | – |
| CC1(C)CC(CC(O)(P(=O)(O)O)P(=O)(O)O)c2ccccc2S1 (centres unmarked) [Example 2, Monosodium 2-[4-(2,2-dimethylthiochromanyl)]-1-hydroxyethane-1,1-diphosphonate] | – | – | – | – | – | 59.6 | 75.3 | 8.0 | 16.5 | 80.4 |
| CCc1cccc2c1SCCC2CC(O)(P(=O)(O)O)P(=O)(O)O (centres unmarked) [Example 10, Disodium 2-[4-(8-ethylthiochromanyl)]-1-hydroxyethane-1,1-diphosphonate] | 38.1 | 62.5 | 19.5 | 33.9 | 23.9 | – | – | – | – | – |
